According to patent US8912186B2, “Allosteric protein kinase modulators” (Universitaet des Saarlandes, priority 2008, dated 2014):
Blank lines part the entries; values can stand above or below the compound they belong to.

How the values were obtained:
[1] = tested on: PC3 prostate carcinoma cells; assay: MTT assay, number of living cells; type: cell-based; conditions: 36 h; for number of PC3 cells as compared to the DMSO-treated control (proliferation / cell death): serum starved, IGF-I, 5% FCS
Description: Cells were serum starved overnight and stimulated or not with 50 μg/ml IGF-I, then test compounds and 5% FCS were added, and cells grown for 36 h. A standard MTT assay was then performed to measure the number of living cells.
To measure the potency of selected compounds to inhibit growth of a cancer cell line, the widely established MTT assay was used. The assay principle relies on the formation of a purple formazan dye from MTT which has been added to the cultured cells due to mitochondrial reductase activity in intact cells. After 3-4 hours of cell incubation with MTT, formazan crystals develop in living and early apoptotic cells but not in dead cells. MTT is suitable for measuring cell proliferation and cell viability.
Thus the cell's viability critically relies on high activities of this pathway but on the other hand it requires highly efficient inhibitors to hit the cells.

PDK1 [2] = molecular target: T1, PDK1 (Homo sapiens, UniProt O15530); assay: cell-free kinase activity assay (ATPgamma[32P], T308tide substrate); type: biochemical; conditions: n.e.: no effect
T1 construct: GST
T1 sequence (O15530 1-556): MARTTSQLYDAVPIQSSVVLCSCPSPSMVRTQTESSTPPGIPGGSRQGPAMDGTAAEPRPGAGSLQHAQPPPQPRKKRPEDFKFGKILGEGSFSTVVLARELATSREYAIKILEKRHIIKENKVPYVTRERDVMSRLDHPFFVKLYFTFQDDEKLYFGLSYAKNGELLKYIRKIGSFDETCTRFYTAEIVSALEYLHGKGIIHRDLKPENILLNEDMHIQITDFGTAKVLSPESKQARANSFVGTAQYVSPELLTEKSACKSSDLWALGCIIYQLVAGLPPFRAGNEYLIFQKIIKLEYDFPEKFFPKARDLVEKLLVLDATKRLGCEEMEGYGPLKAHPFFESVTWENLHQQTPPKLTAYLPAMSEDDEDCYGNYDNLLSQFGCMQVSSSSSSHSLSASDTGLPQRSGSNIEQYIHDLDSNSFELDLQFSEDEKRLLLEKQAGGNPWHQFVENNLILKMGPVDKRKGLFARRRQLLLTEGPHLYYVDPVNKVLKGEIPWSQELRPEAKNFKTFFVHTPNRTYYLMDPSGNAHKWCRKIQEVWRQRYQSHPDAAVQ
Outline: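 Radiometric ATPγ[32P] kinase assay; for PDK1, 200 ng enzyme with 1 mM T308tide substrate, run at room temperature for 30 min. Reaction started with ATP-Mg and stopped with phosphoric acid. Incorporated radioactivity measured after spotting on phosphocellulose paper and washing.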

PDK1 [3] = molecular target: T2, PDK1 (Homo sapiens, UniProt O15530); assay: TNP-ATP fluorescence probe of the ATP binding site conformation; conditions: for TNP-ATP fluorescence intensity in the presence of PDK1: addition to the TNP-ATP-PDK1 mixture
T2 construct: maximal fluorescence intensity of TNP-ATP obtained with addition of 15 μM PDK1 CD
T2 sequence (O15530 82-342 limits assumed): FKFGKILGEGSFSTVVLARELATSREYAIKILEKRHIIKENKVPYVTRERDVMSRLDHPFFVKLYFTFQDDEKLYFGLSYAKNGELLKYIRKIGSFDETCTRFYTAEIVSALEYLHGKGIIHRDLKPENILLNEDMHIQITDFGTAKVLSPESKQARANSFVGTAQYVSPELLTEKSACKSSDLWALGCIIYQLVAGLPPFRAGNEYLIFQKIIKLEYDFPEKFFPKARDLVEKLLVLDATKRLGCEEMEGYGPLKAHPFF
Description: In order to shed further light on the conformational change induced by the binding of small compounds to the PIF-binding pocket of PDK1, we developed a method to probe the ATP binding site conformation in solution with the use of a fluorescent ATP analogue, trinitrophenyl-ATP (TNP-ATP; FIG. 5A). […] Since the decrease in fluorescence intensity was also measured with phosphorylated HM polypeptides and PIFtide, it is likely that the ATP-binding site conformational change measured was actually related to the equivalent events that activate PDK1 by low molecular weight compounds and HM-polypeptides.
(A) TNP-ATP formulae. (B, C and D) Fluorescence intensities are expressed as % of the maximal fluorescence intensity of TNP-ATP obtained with addition of 15 μM PDK1 CD. (B) Effect of PDK1 addition on TNP-ATP fluorescence. (C) Addition of PS08 to the TNP-ATP-PDK1 mixture triggered a concentration dependent decrease of the fluorescence intensity. At 167 μM PS08 (=PS-T-8), the maximum fluorescence intensity was 60%, similar to TNP-ATP alone. (D) Effect of 167 μM PS133, the isomer compound PS08 to the TNP-ATP-PDK1.

AC50 (PDK1 [2]; concentration of the compound required to activate half maximally): 22.8 µM | max. activation of PDK1 (fold) (PDK1 [2]; maximum activation achievable, compared to the basal activity of PDK1): 2.6 fold
SMILES: O=C(O)/C=C(/CSc1ccc(Cl)cc1)c1ccccc1 [PS 99, (E)-4-(4-Chlorophenylthio)-3-phenylbut-2-enoic acid]
concentration at which effects were detectable ([1]; PC3 cells): 10 to 20 µM | number of PC3 cells as compared to the DMSO-treated control (proliferation / cell death) [1]: can inhibit the proliferation of/or induce cell death of cancer cells | number of PC3 cells as compared to the DMSO-treated control (proliferation / cell death) ([1]; listed as PS99): significantly reduced

TNP-ATP fluorescence intensity in the presence of PDK1 (PDK1 [3]): did not affect
SMILES: O=C(O)/C=C(\CCc1ccc(Br)cc1F)c1ccccc1 [PS 133, (E)-5-(4-Bromo-2-fluorophenyl)-3-phenylpent-2-enoic acid]

maximum fluorescence intensity of TNP-ATP (PDK1 [3]; 167 μM compound, % of the maximal fluorescence intensity of TNP-ATP obtained with 15 μM PDK1 CD): 60% | TNP-ATP fluorescence intensity in the presence of PDK1 (PDK1 [3]): concentration-dependent decrease
SMILES: O=C(O)/C=C(/CCc1ccc(Br)cc1F)c1ccccc1 [PS-T8, (Z)-5-(4-Bromo-2-fluorophenyl)-3-phenylpent-2-enoic acid]

EC50 ([1]; Homo sapiens, PC-3, PC3 cells, control drug): ~1 µM
SMILES: CO[C@H]1C[C@@H]2CC[C@@H](C)[C@@](O)(O2)C(=O)C(=O)N2CCCC[C@H]2C(=O)O[C@H]([C@H](C)C[C@@H]2CC[C@@H](O)[C@H](OC)C2)CC(=O)[C@H](C)/C=C(\C)[C@@H](O)[C@@H](OC)C(=O)[C@H](C)C[C@H](C)/C=C/C=C/C=C/1C [rapamycin, reference compound]
